Data as given in US8399683B2 (TetraLogic Pharmaceuticals, priority 2008, dated 2013).

Legend:
cIAP-1 BIR-3 = cIAP-1 BIR-3 (Homo sapiens, UniProt Q13490); test: Fluorescence polarization binding affinity to cIAP-1 BIR-3 (competition with AbuRPF-K(5-Fam)-NH2); settings: 5 nM labeled peptide, 40 nM BIR3, 15 min at RT, pH 7.5; reported as ranges; read-out: KD (c-IAP-1 BIR3)
Method in brief: (§1)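 Test peptides at varied concentrations competed with 5 nM fluorescent Smac-mimetic tracer for 40 nM BIR3 domain, 15 min at RT in 0.1M potassium phosphate pH 7.5 with […] bovine g-globulin. Polarization (mP) read at 485/520 nm; KD reported in bins (A=<0.1 μM, B=0.1–1 μM, C>1–10 μM, D=>10 μM).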

SK-OV-3 cells = test: Growth inhibition of ovarian cancer cell line SK-OV-3 (MTT assay, cell survival); format: cell-based; settings: Homo sapiens, drug concentration that results in 50% cell survival, 72 hrs incubation, reported as ranges
Method in brief: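 After overnight seeding in McCoy's medium with 10% FBS, SK-OV-3 cells were exposed to compound at 0.003-10 μM for 72 hrs at 37° C. MTT was then added for 3 h, with DMSO solubilization and OD read at 535 nm. CC50 is the concentration giving 50% survival relative to untreated control, reported as ranges.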

XIAP BIR-3 = biological target: T1, XIAP BIR-3 (Homo sapiens, UniProt P98170); test: Fluorescence polarization binding affinity to XIAP BIR-3 (competition with AbuRPF-K(5-Fam)-NH2); settings: 5 nM labeled peptide, 40 nM BIR3, 15 min at RT, pH 7.5; reported as ranges
T1 construct: 40 nM of the respective IAP BIR3
T1 sequence (P98170 241-356 limits assumed): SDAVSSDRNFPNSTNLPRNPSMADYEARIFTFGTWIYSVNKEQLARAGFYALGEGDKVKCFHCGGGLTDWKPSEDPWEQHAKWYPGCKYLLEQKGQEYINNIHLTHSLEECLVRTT
Method in brief: as §1

Chain of cIAP-1 BIR-3 (Q13490 266-352 limits assumed): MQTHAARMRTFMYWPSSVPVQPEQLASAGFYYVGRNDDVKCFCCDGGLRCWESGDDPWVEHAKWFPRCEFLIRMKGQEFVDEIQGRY

Row | Kd (cIAP-1 BIR-3) [nM] | Kd (XIAP BIR-3) [nM] | Structure (SMILES) | CC50 (SK-OV-3 cells) [nM]
1 | < 100 | < 100 | CN[C@@H](C)C(=O)N[C@H](C(=O)N1CC[C@@H]2[C@H]1[C@@H](c1c[nH]c3cc(F)ccc13)CN2C(C)=O)C(C)(C)C [Example 62, N-{1-[4-Acetyl-6-(6-fluoro-1H-indol-3-yl)-hexahydro-pyrrolo[3,2-b]pyrrole-1-carbonyl]-2,2-dimethyl-propyl}-2-methylamino-propionamide] | < 100
2 | < 100 | < 100 | CNC(C)C(=O)NC(C(=O)N1CC(c2c[nH]c3cc(F)ccc23)C2C1CCN2C(=O)C(NC(=O)C(C)NC)C1CCCCC1)C1CCCCC1 (stereo not drawn) [Example 111, N-{1-Cyclohexyl-2-[4-[2-cyclohexyl-2-(2-methylamino-propionylamino)-acetyl]-6-(6-fluoro-1H-indol-3-yl)-hexahydro-pyrrolo[3,2-b]pyrrol-1-yl]-2-oxo-ethyl}-2-methylamino-propionamide] | < 100
3 | 100 to 1000 | > 10000 | CN[C@@H](C)C(=O)N[C@H](C(=O)N1CC[C@@H]2[C@H]1[C@H](c1c[nH]c3cc(F)ccc13)CN2S(C)(=O)=O)[C@@H](C)OC [Example 57, N-{1-[6-(6-Fluoro-1H-indol-3-yl)-4-methanesulfonyl-hexahydro-pyrrolo[3,2-b]pyrrole-1-carbonyl]-2-methoxy-propyl}-2-methylamino-propionamide] | > 10000
4 | < 100 | < 100 | CN[C@@H](C)C(=O)N[C@H](C(=O)N1CC[C@@H]2[C@H]1[C@@H](c1c[nH]c3ccc(F)cc13)CN2C(C)=O)C1CCCCC1 [Example 70, N-{2-[4-Acetyl-6-(5-fluoro-1H-indol-3-yl)-hexahydro-pyrrolo[3,2-b]pyrrol-1-yl]-1-cyclohexyl-2-oxo-ethyl}-2-methylamino-propionamide] | < 100
5 | < 100 | < 100 | CN[C@@H](C)C(=O)NC(C)C(=O)N1CC[C@@H]2[C@H]1[C@@H](c1c[nH]c3cc(F)ccc13)CN2C(C)=O (stereo partly drawn) [Example 95] | 100 to 1000
6 | < 100 | 1000 to 10000 | CNC(C)C(=O)NC(C(=O)N1CCC2C1CCN2C(=O)C(NC(=O)C(C)NC)C1CCCCC1)C1CCCCC1 (stereo not drawn) [Example 110, N-(1-Cyclohexyl-2-{4-[2-cyclohexyl-2-(2-methylamino-propionylamino)-acetyl]-hexahydro-pyrrolo[3,2-b]pyrrol-1-yl}-2-oxo-ethyl)-2-methylamino-propionamide] | 1000 to 10000
7 | 1000 to 10000 | > 10000 | CC[C@H](NC(=O)[C@H](C)NC)C(=O)N1CC[C@@H]2[C@H]1[C@H](c1c[nH]c3cc(F)ccc13)CN2S(C)(=O)=O [Example 45, N-{1-[6-(6-Fluoro-1H-indol-3-yl)-4-methanesulfonyl-hexahydro-pyrrolo[3,2-b]pyrrole-1-carbonyl]-propyl}-2-methylamino-propionamide] | > 10000
8 | < 100 | 100 to 1000 | CC[C@H](NC(=O)[C@H](C)NC)C(=O)N1CC[C@@H]2[C@H]1[C@@H](c1c[nH]c3cc(F)ccc13)CN2c1ncccn1 [Example 78, N-{1-[6-(6-Fluoro-1H-indol-3-yl)-4-pyrimidin-2-yl-hexahydro-pyrrolo[3,2-b]pyrrole-1-carbonyl]-propyl}-2-methylamino-propionamide] | < 100
9 | < 100 | < 100 | CN[C@@H](C)C(=O)N[C@H](C(=O)N1CC[C@@H]2[C@H]1[C@@H](c1c[nH]c3cc(F)ccc13)CN2c1ncccn1)[C@@H](C)O [Example 82, N-{1-[6-(6-Fluoro-1H-indol-3-yl)-4-pyrimidin-2-yl-hexahydro-pyrrolo[3,2-b]pyrrole-1-carbonyl]-2-hydroxy-propyl}-2-methylamino-propionamide] | < 100
10 | < 100 | < 100 | CN[C@@H](C)C(=O)N[C@H](C(=O)N1CC[C@@H]2[C@H]1[C@@H](c1c[nH]c3cc(F)ccc13)CN2C(C)=O)C1CCCCC1 [Example 59, N-{2-[4-Acetyl-6-(6-fluoro-1H-indol-3-yl)-hexahydro-pyrrolo[3,2-b]pyrrol-1-yl]-1-cyclohexyl-2-oxo-ethyl}-2-methylamino-propionamide] | < 100
11 | < 100 | < 100 | CN[C@@H](C)C(=O)N[C@H](C(=O)N1CC[C@@H]2[C@H]1[C@@H](c1c[nH]c3cc(F)ccc13)CN2C(C)=O)[C@@H](C)O [Example 65, N-{1-[4-Acetyl-6-(6-fluoro-1H-indol-3-yl)-hexahydro-pyrrolo[3,2-b]pyrrole-1-carbonyl]-2-hydroxy-propyl}-2-methylamino-propionamide] | 100 to 1000
12 | < 100 | 100 to 1000 | CN[C@@H](C)C(=O)N[C@H](C(=O)N1CC[C@@H]2[C@H]1[C@@H](c1c[nH]c3cc(F)ccc13)CN2CC(=O)O)C1CCCCC1 [Example 42, [4-[2-Cyclohexyl-2-(2-methylamino-propionylamino)-acetyl]-3-(6-fluoro-1H-indol-3-yl)-hexahydro-pyrrolo[3,2-b]pyrrol-1-yl]-acetic acid] | 1000 to 10000
13 | < 100 | < 100 | CN[C@@H](C)C(=O)N[C@H](C(=O)N1CC[C@@H]2[C@H]1[C@@H](c1c[nH]c3cc(F)ccc13)CN2C(C)=O)C(C)C [Example 61, N-{1-[4-Acetyl-6-(6-fluoro-1H-indol-3-yl)-hexahydro-pyrrolo[3,2-b]pyrrole-1-carbonyl]-2-methyl-propyl}-2-methylamino-propionamide] | < 100
14 | < 100 | 100 to 1000 | CN[C@@H](C)C(=O)N[C@H](C(=O)N1CC[C@@H]2[C@H]1[C@@H](c1c[nH]c3cc(F)ccc13)CN2Cc1ccccc1)[C@@H](C)O [Example 101] | 100 to 1000

The remaining lines, values behind:

Row | Structure (SMILES) | Kd (cIAP-1 BIR-3) [nM] | Kd (XIAP BIR-3) [nM] | CC50 (SK-OV-3 cells) [nM]
15 | CN[C@@H](C)C(=O)N[C@@H](CO)C(=O)N1CC[C@H]2NC[C@H](c3c[nH]c4cc(F)ccc34)[C@H]21 [Example 33, N-{2-[6-(6-Fluoro-1H-indol-3-yl)-hexahydro-pyrrolo[3,2-b]pyrrol-1-yl]-1-hydroxymethyl-2-oxo-ethyl}-2-methylamino-propionamide] | < 100 | < 100 | 1000 to 10000
16 | CC[C@H](NC(=O)[C@H](C)NC)C(=O)N1CC[C@@H]2[C@H]1[C@H](c1c[nH]c3cc(F)ccc13)CN2C1CCCC1 [Example 5, N-{1-[4-Cyclopentyl-6-(6-fluoro-1H-indol-3-yl)-hexahydro-pyrrolo[3,2-b]pyrrole-1-carbonyl]-propyl}-2-methylamino-propionamide] | 100 to 1000 | > 10000 | 1000 to 10000
17 | CN[C@@H](C)C(=O)N[C@H](C(=O)N1CC[C@@H]2[C@H]1[C@@H](c1c[nH]c3cc(F)ccc13)CN2C1CCCC1)[C@@H](C)OC [Example 16, N-{1-[4-Cyclopentyl-6-(6-fluoro-1H-indol-3-yl)-hexahydro-pyrrolo-[3,2-b]pyrrole-1-carbonyl]-2-methoxy-propyl}-2-methylamino-propionamide] | < 100 | 100 to 1000 | 100 to 1000
18 | CN[C@@H](C)C(=O)N[C@H](C(=O)N1CC[C@@H]2[C@H]1[C@@H](c1c[nH]c3cc(F)ccc13)CN2C1CCCC1)[C@@H](C)O [Example 15] | 100 to 1000 | 100 to 1000 | 100 to 1000
19 | CN[C@@H](C)C(=O)N[C@H](C(=O)N1CC[C@@H]2[C@H]1[C@H](c1c[nH]c3cc(F)ccc13)CN2C1CCCC1)C(C)(C)C [Example 3, N-{1-[4-Cyclopentyl-6-(6-fluoro-1H-indol-3-yl)-hexahydro-pyrrolo[3,2-b]pyrrole-1-carbonyl]-2,2-dimethyl-propyl}-2-methylamino-propionamide] | 1000 to 10000 | 1000 to 10000 | 1000 to 10000
20 | CN[C@@H](C)C(=O)N[C@H](C(=O)N1CC[C@@H]2[C@H]1[C@@H](c1c[nH]c3cc(F)ccc13)CN2C(=O)OC)C1CCCCC1 [Example 36, 4-[2-Cyclohexyl-2-(2-methylamino-propionylamino)-acetyl]-3-(6-fluoro-1H-indol-3-yl)-hexahydro-pyrrolo[3,2-b]pyrrole-1-carboxylic acid methyl ester] | < 100 | < 100 | < 100
21 | CN[C@@H](C)C(=O)N[C@H](C(=O)N1CC[C@@H]2[C@H]1[C@@H](c1c[nH]c3cc(F)ccc13)CN2C1CCCCC1)C1CCCCC1 [Example 20, N-{1-Cyclohexyl-2-[4-cyclohexyl-6-(6-fluoro-1H-indol-3-yl)-hexahydro-pyrrolo[3,2-b]pyrrol-1-yl]-2-oxo-ethyl}-2-methylamino-propionamide] | < 100 | < 100 | 100 to 1000
22 | CN[C@@H](C)C(=O)N[C@@H](CO)C(=O)N1CC[C@@H]2[C@H]1[C@@H](c1c[nH]c3cc(F)ccc13)CN2C1CCCC1 [Example 11] | < 100 | 100 to 1000 | > 10000
23 | CN[C@@H](C)C(=O)N[C@H](C(=O)N1CC[C@@H]2[C@H]1[C@@H](c1c[nH]c3cc(F)ccc13)CN2Cc1ccccn1)C1CCCCC1 [Example 24, N-{1-Cyclohexyl-2-[6-(6-fluoro-1H-indol-3-yl)-4-pyridin-2-ylmethyl-hexahydro-pyrrolo[3,2-b]pyrrol-1-yl]-2-oxo-ethyl}-2-methylamino-propionamide] | < 100 | < 100 | < 100
